Key:
Format in all cases: biochemical
Plk1 = target: T1, Plk1 (Homo sapiens, UniProt P53350); experiment: Plk1 Inhibition Assay, SPA (assay 6); settings: ATP 0.5 μM
T1 construct: N-terminally 6His-tagged full length Plk1; 6His (N); made in house
From the text: Assay 6: Plk1 Inhibition Assay
Plk1 phosphorylates serine/threonine residues of the biotinylated substrate bovine α-casein in the presence of [γ-^33P]ATP. Detection of the radiolabeled phosphorylated product is achieved by binding to streptavidine-coated SPA beads. The biotin moieties of biotinylated casein bind with high affinity to the streptavidine. The radiolabeled biotinylated casein produced by the Plk1 kinase reaction is able to generate a chemoluminescent signal when strepatavidine-mediated binding occurs to the scintillant-containing surface of the beads due to the close proximity of the radiolabel and the scintillant. […] The signals obtained are therefore indicative of the Plk1 kinase activity. Measurement is performed in a Perkin-Elmer TopCount instrument.
Enzyme: Purified human recombinant PLK1 [N-terminally 6His-tagged full length Plk1], prepared in house, conc.: 0.4 μg/μl Substrate: biotinylated bovine α-casein. Unbiotinylated casein obtained from Sigma was biotinylated by standard procedures using N-hydroxysuccinimide (NHS) ester of biotin. SPA-beads: PVT streptavidin SPA Beads, Amersham (# RPNQ0007) Reference compound: Wortmannin Assay plates: 384-well plates, small volume, white, Greiner (#784075) Buffer Materials Hepes: Sigma (# H-4034), MnCl2: Sigma (# M-1787), MgCl2: Sigma [# M-1028], NaCl: Merck [#1.06404.100], DTT: Biomol (#04010), NP40: Fluka (#74385), Complete EDTA-free: Roche [#1873580], ATP: Amersham (#27-2056), 33P-gamma-ATP: Perkin Elmer (Easytides # NEG/602H), EDTA: Sigma (# E-7889), PBS: Gibco (#14190-094), ATP for stopping solution: Sigma #(A-7699), DMSO: Merck [#8.02912.1000] Sealing tape: Greiner (#676080) Reader: TopCount instrument (PerkinElmer)
Assay buffer: 2.5 mM MnCl2, 5 mM MgCl2, 120 mM NaCl, 1 mM DTT, 50 mM Hepes pH 7.0, 0.01% NP40, 1× Complete (protease inhibitor cocktail) Enzyme working solution: 2.86 ng/μl PLK1 in assay buffer Substrate working solution: 1 μM ATP, 1.4 μM biotinylated a-Casein, 2.0 nCi/μl in assay buffer Stop/Detection solution: 50 μM ATP, 20 mM EDTA, 5 μg/μl beads in PBS 3. Assay protocol for small volume screen (all steps at 20° C., pipetted with CyBi-Well pipettor) • 1. 0.75 μl Compound in 30% or 100% DMSO • 2. addition of 3.5 μl Enzyme working solution • 3. addition of 3.5 μl Substrate working solution incubation 180 min • 4. addition of 10 μl Stop/Detection solution • 5. sealing of the plates, incubation 30 min, 10 min centrifugation at 1500 rpm • 6. Measurement in TopCount reader (60 sec/well)
Final concentrations, calculated for 7 μl reaction volume: PLK1 10 ng/well; a-Casein 0.7 μM; ATP 0.5 μM; gamma-33P-ATP 7 nCi/well, 2.5 mM MnCl2, 5 mM MgCl2, 120 mM NaCl, 1 mM DTT, 50 mM Hepes pH 7.0, 0.01% NP40, 1× Complete, 3% or 10% DMSO
The data were normalised (enzyme reaction without inhibitor=0% inhibition, enzyme reaction in the presence of 3.0 E-06 M wortmannin=100% inhibition) and IC50 values were calculated by a 4-parameter fit using an in house software.

human KDR = target: T2, human KDR (Homo sapiens, UniProt P35968); experiment: KDR Kinase Assay, HTRF (assay 5); settings: 10 μM ATP
T2 construct: GST-tagged recombinant kinase domain of the human KDR; GST; host or cells: SF-9 insect cells
Description: Assay 5: KDR Kinase Assay
KDR inhibitory activity of compounds of the present invention was quantified employing the KDR HTRF assay as described in the following paragraphs.
GST-tagged recombinant kinase domain of the human KDR expressed in SF-9 cells was used as kinase. As substrate for the kinase reaction the biotinylated peptide biotin-Ahx-DFGLARDMYDKEYYSVG (C-terminus in acid form) was used which can be purchased e.g. form the company Biosynthan GmbH (Berlin-Buch, Germany). KDR was incubated for 45 min at 22° C. in the presence of different concentrations of test compounds in 5 μl assay buffer [50 mM Hepes/NaOH pH 7.0, 25 mM MgCl2, 5 mM MnCl2, 1.0 mM dithiothreitol, 0.1 mM sodium ortho-vanadate, 10 μM adenosine-tri-phosphate (ATP), 0.5 μM substrate, 0.001% (v/v) Nonidet-P40 (Sigma), 1% (v/v) dimethylsulfoxide]. The concentration of KDR was adjusted depending of the activity of the enzyme lot and was chosen appropriate to have the assay in the linear range. The reaction was stopped by the addition of 5 μl of a solution of HTRF detection reagents (0.1 μM streptavidine-XLent and 2 nM PT66-Eu-Chelate, an europium-chelate labelled anti-phospho-tyrosine antibody from Perkin Elmer) in an aqueous EDTA-solution (125 mM EDTA, 0.2% (w/v) bovine serum albumin in 50 mM HEPES/NaOH pH 7.0).
(§1) The resulting mixture was incubated 1 h at 22° C. to allow the binding of the biotinylated phosphorylated peptide to the streptavidine-XLent and the PT66-Eu-Chelate. Subsequently the amount of phosphorylated substrate was evaluated by measurement of the resonance energy transfer from the PT66-Eu-Chelate to the streptavidine-XLent. Therefore, the fluorescence emissions at 620 nm and 665 nm after excitation at 350 nm was measured in a HTRF reader, e.g. a Rubystar (BMG Labtechnologies, Offenburg, Germany) or a Viewlux (Perkin-Elmer). The ratio of the emissions at 665 nm and at […] was taken as the measure for the amount of phosphorylated substrate. The data were normalised (enzyme reaction without inhibitor=0% inhibition, all other assay components but no enzyme=100% inhibition) and IC50 values were calculated by a 4 parameter fit using an inhouse software.

CDK2/CycE = target: T3, CDK2/CycE (Homo sapiens, UniProt P24941); experiment: CDK2 HTRF Assay (assay 4); settings: pIC50 = −log IC50 in molar concentration; 10 μM ATP
T3 construct: GST; purchased ProQinase GmbH (Freiburg, Germany); host or cells: Sf9 insect cells
From the text: CDK2/CycE—inhibitory activity of compounds of the present invention was quantified employing the CDK2/CycE HTRF assay as described in the following paragraphs.
Recombinant fusion proteins of GST and human CDK2 and of GST and human CycE, expressed in insect cells (Sf9) and purified by Glutathion-Sepharose affinity chromatography, were purchase from ProQinase GmbH (Freiburg, Germany). As substrate for the kinase reaction biotinylated peptide biotin-Ttds-YISPLKSPYKISEG (C-terminus in amid form) was used which can be purchased e.g. form the company JERINI peptide technologies (Berlin, Germany).
CDK2/CycE was incubated for 60 min at 22° C. in the presence of different concentrations of test compounds in 5 μl assay buffer [50 mM Tris/HCl pH […], 1.0 mM dithiothreitol, 0.1 mM sodium ortho-vanadate, 10 μM adenosine-tri-phosphate (ATP), 0.75 μM substrate, 0.01% (v/v) Nonidet-P40 (Sigma), 1% (v/v) dimethylsulfoxide]. The concentration of CDK2/CycE was adjusted depending of the activity of the enzyme lot and was chosen appropriate to have the assay in the linear range, typical concentrations were in the range of 1 ng/ml. The reaction was stopped by the addition of 5 μl of a solution of HTRF detection reagents (0.2 μM streptavidine-XLent and 3.4 nM Phospho-(Ser) CDKs Substrate Antibody [product #2324B, Cell Signalling Technology, Danvers, Mass., USA} and 4 nM Prot-A-EuK [Protein A labeled with Europium Cryptate from Cis biointernational, France, product no. 61PRAKLB]) in an aqueous EDTA-solution (100 mM EDTA, 800 mM KF, 0.2% (w/v) bovine serum albumin in 100 mM HEPES/NaOH pH 7.0).

Tie-2 = target: T4, Tie-2 (Homo sapiens, UniProt Q02763); experiment: Tie-2-Kinase HTRF-Assay without Kinase Preactivation (assay 2); settings: 10 μM ATP, no kinase preactivation
T4 construct: A recombinant fusion protein of GST and the intracellular domains of Tie-2, expressed in insect cells (Hi-5); GST; made in house; host or cells: Hi-5 insect cells
From the text: Tie2-inhibitory activity of compounds of the present invention was quantified employing two Tie2 HTRF assay as described in the following paragraphs.
A recombinant fusion protein of GST and the intracellular domains of Tie-2, expressed in insect cells (Hi-5) and purified by Glutathion-Sepharose affinity chromatography was used as kinase. Alternatively, commercially available GST-Tie2-fusion protein (Upstate Biotechnology, Dundee, Scotland) can be used As substrate for the kinase reaction the biotinylated peptide biotin-Ahx-EPKDDAYPLYSDFG (C-terminus in amid form) was used which can be purchased e.g. from the company Biosynthan GmbH (Berlin-Buch, Germany). Detection of phosphorylated product is achieved specifically by a trimeric detection complex consisting of the phosphorylated substrate, streptavidin-XLent (SA-XLent) which binds to biotin, and Europium Cryptate-labeled anti-phosphotyrosine antibody PT66 which binds to phosphorylated tyrosine.
Tie-2 (3.5 ng/measurement point) was incubated for 60 min at 22° C. in the presence of 10 μM adenosine-tri-phosphate (ATP) and 1 μM substrate peptide (biotin-Ahx-EPKDDAYPLYSDFG-NH2) with different concentrations of test compounds (0 μM and concentrations in the range 0.001-20 μM) in 5 μl assay buffer [50 mM Hepes/NaOH pH 7, 10 mM MgCl2, 0.5 mM MnCl2, 1.0 mM dithiothreitol, 0.01% NP40, protease inhibitor mixture (“Complete w/o EDTA” from Roche, 1 tablet per 2.5 ml), 1% (v/v) dimethylsulfoxide]. The reaction was stopped by the addition of 5 μl of an aqueous buffer (25 mM Hepes/NaOH pH 7.5, 0.28% (w/v) bovine serum albumin) containing EDTA (90 mM) and the HTRF (Homogeneous Time Resolved Fluorescence) detection reagents streptavidine-XLent (0.2 μM, from Cis Biointernational, Marcoule, France) and PT66-Eu-Chelate (0.3 ng/μl; a europium-chelate labelled anti-phospho-tyrosine antibody from Perkin Elmer).
as §1, with “substrate peptide” for “substrate”, “substrate peptide.” for “substrate.”

T1 sequence (P53350 whole entry): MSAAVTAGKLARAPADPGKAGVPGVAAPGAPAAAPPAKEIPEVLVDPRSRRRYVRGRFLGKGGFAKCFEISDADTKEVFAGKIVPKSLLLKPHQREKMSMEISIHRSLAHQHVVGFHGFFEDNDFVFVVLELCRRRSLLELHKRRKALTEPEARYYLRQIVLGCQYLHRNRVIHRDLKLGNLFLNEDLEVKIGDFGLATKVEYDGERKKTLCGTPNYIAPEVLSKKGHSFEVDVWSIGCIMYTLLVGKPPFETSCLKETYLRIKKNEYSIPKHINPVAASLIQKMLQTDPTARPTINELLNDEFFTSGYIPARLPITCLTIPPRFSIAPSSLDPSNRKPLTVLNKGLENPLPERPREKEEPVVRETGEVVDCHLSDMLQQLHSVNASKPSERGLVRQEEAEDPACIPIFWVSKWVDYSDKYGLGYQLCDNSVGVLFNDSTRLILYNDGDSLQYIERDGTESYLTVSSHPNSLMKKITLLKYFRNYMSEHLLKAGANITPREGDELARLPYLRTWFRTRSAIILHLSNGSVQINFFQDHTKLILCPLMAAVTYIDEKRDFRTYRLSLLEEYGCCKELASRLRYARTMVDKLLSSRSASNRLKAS
T2 sequence (P35968 834-1162 limits assumed): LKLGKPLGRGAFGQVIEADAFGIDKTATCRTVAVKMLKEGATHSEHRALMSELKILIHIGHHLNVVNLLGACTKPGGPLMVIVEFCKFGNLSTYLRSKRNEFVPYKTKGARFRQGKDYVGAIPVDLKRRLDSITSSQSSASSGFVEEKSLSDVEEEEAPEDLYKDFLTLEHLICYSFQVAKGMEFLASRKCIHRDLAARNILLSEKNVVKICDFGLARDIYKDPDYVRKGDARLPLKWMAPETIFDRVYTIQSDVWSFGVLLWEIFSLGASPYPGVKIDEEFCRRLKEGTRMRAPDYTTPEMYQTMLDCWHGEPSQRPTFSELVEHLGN
T4 sequence (Q02763 770-1124 limits assumed): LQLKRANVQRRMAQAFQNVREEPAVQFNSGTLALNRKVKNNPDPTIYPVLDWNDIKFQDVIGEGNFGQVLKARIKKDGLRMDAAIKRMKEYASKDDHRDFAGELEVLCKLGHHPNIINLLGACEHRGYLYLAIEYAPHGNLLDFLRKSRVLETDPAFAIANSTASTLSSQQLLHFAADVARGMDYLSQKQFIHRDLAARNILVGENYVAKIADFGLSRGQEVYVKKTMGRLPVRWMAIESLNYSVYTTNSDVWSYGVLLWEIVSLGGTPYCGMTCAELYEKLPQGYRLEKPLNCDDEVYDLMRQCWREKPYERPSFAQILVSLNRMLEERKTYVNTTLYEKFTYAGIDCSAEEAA

SMILES | IC50 (Plk1) [nM] | IC50 (human KDR) [nM] | IC50 (CDK2/CycE) [nM] | IC50 (Tie-2) [nM]
O=C(NCCC#Cc1cnc2nc1NCCCNS(=O)(=O)c1cccc(c1)N2)Nc1ccccc1 [Example 6, 1-[4-(13,13-Dioxo-13λ^6-thia-2,4,8,12,19-pentaaza-tricyclo[12.3.1.1^3,7]-nonadeca-1(18),3(19),4,6,14,16-hexaen-6-yl)-but-3-ynyl]-3-phenyl-urea] | > 10000 | ≤ 100 | 1000 to 10000 | 100 to 1000
O=S1(=O)NCCCNc2nc(ncc2C#CCNS(=O)(=O)c2cccc(Cl)c2Cl)Nc2cccc1c2 [Example 8, 2,3-Dichloro-N-[3-(13,13-dioxo-13λ^6-thia-2,4,8,12,19-pentaaza-tricyclo[12.3.1.1^3,7]-nonadeca-1(18),3(19),4,6,14,16-hexaen-6-yl)-prop-2-ynyl]-benzenesulfonamide] | > 10000 | ≤ 100 | 1000 to 10000 | 100 to 1000
Cc1ccc(F)c(S(=O)(=O)NCCC#Cc2cnc3nc2NCCCNS(=O)(=O)c2cccc(c2)N3)c1 [Example 13, N-[4-(13,13-Dioxo-13λ^6-thia-2,4,8,12,19-pentaaza-tricyclo[12.3.1.1^3,7]-nonadeca-1(18),3(19),4,6,14,16-hexaen-6-yl)-but-3-ynyl]-2-fluoro-5-methyl-benzene-sulfonamide] | > 10000 | ≤ 100 | > 10000 | ≤ 100

Now from value to compound:

IC50 (Plk1) [nM] | IC50 (human KDR) [nM] | IC50 (CDK2/CycE) [nM] | IC50 (Tie-2) [nM] | SMILES
> 10000 | ≤ 100 | > 10000 | ≤ 100 | O=C(NCC#Cc1cnc2nc1NCCCNS(=O)(=O)c1cccc(c1)N2)Nc1cccc(C(F)(F)F)c1 [Example 4, 1-[3-(13,13-Dioxo-13λ^6-thia-2,4,8,12,19-pentaaza-tricyclo[12.3.1.1^3,7]-nonadeca-1(18),3(19),4,6,14,16-hexaen-6-yl)-prop-2-ynyl]-3-(3-trifluoromethyl-phenyl)-urea]
> 10000 | 100 to 1000 | > 10000 | ≤ 100 | O=C(NCC#Cc1cnc2nc1NCCCNS(=O)(=O)c1cccc(c1)N2)NCc1ccccc1 [Example 5, 1-Benzyl-3-[3-(13,13-dioxo-13λ^6-thia-2,4,8,12,19-pentaaza-tricyclo[12.3.1.1^3,7]-nonadeca-1(18),3(19),4,6,14,16-hexaen-6-yl)-prop-2-ynyl]-urea]
